Source: patent US8318710B2, “Skin treatments” (priority 2003, dated 2012)
Like-named read-outs stand apart in the source and are kept apart here.

Assays:
[1] = system: RAR reporter gene construct (RAREs) with over-expressed RARγ, RXRα and LXRα in Cos-7 cells; settings: 24 hours, fold activation over vehicle (ethanol) control
[2] = system: CRABPII protein in primary dermal fibroblasts; assay: Fibroblast expression of CRABPII (Western blot); type: cell-based; settings: 24 hours; for Band Intensity (arbitrary units): CRABPII band; for Relative band intensity: relative to vehicle
Experimental: Cells were then plated out in 12 well plates at 38,000 cells per well, and incubated for 24 hours. […] Cells were treated with vehicle (ethanol) or 22R hydroxycholesterol and/or retinoic acid in 1 ml fresh medium (DMEM plus 10% FCS). Treatments were prepared as fresh 1000× stocks and diluted into medium immediately before addition to the cells. […] Cells were washed in 1 ml phosphate buffer saline and trypsinised from the plates. Cells were pelleted at 13000 g for 5 min and washed with 1 ml PBS. Cells were re-pelleted and re-suspended in protein lysis buffer (4M urea, 0.5% SDS, 10 mM EDTA in PBS with protease inhibitor cocktail). Samples were equilibrated for total protein content and the proteins separated by SDS-PAGE and blotted to nitrocellulose. Membranes were probed with antisera against the CRABPII protein and detected by ECL-plus. Intensity of signal was captured using a STORM scanner and quantified using ImageQuant 5.2.

Row | Compound | Fold activity +/− sd (n = 3) ([1]; 35 μM 22R hydroxycholesterol) | % change from vehicle ([2]; 5 μM 22R-hydroxycholesterol) [%] | Band Intensity (arbitrary units) ([2]; 5 μM 22R-hydroxycholesterol) | Relative band intensity ([2]; 5 μM 22R-hydroxycholesterol) | Fold activity +/− sd (n = 3) ([1]; 0.1 μM all-trans retinoic acid) | % change from vehicle ([2]; 1 nM all-trans retinoic acid) | Band Intensity (arbitrary units) ([2]; 1 nM all-trans retinoic acid) | Relative band intensity ([2]; 1 nM all-trans retinoic acid)
1 | CC(C)CC[C@@H](O)[C@@H](C)[C@H]1CC[C@H]2[C@@H]3CC=C4C[C@@H](O)CC[C@]4(C)[C@H]3CC[C@]12C [22R hydroxycholesterol] | 1.209 +/− 0.030 fold | −0.8 | 167664.2 | 0.992 |  |  |  | 
2 | CC1=C(/C=C/C(C)=C/C=C/C(C)=C/C(=O)O)C(C)(C)CCC1 [all-trans retinoic acid] |  |  |  |  | 1.733 +/− 0.445 fold | +35.3% | 228603.88 | 1.353
